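Where inhibition never reached the appropriate level, the endpoint shown equals the highest concentration tested. Otherwise, values were interpolated linearly from a five-concentration, 48-hour dose response in 96-well plates. GI50: concentration for 50% inhibition of growth.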 Active and inactive are the calls of the source. Cut-off read from the data, not from the text of the source: active = GI50 up to about 1.1 µM and inactive = higher.
Columns and labels:
Experiment in all cases: NCI-60 cell line screen, 48 h
[1] = system: RXF 393
[2] = system: HOP-92
[3] = system: ACHN
[4] = system: MOLT-4
[5] = system: HL-60
[6] = system: DLD-1
[7] = system: 786-0
[8] = system: KM-20L2
[9] = system: SK-MEL-28
[10] = system: SK-MEL-5
[11] = system: UACC-257
[12] = system: SW-620
[13] = system: U-251
[14] = system: NCI-H23
[15] = system: COLO 205
[16] = system: M14
[17] = system: A549
[18] = system: RPMI-8226
[19] = system: OVCAR-3
[20] = system: OVCAR-5
[21] = system: Malme-3M
[22] = system: DMS-273
[23] = system: HOP-62
[24] = system: SF-539
[25] = system: KM12
[26] = system: SNB-75
[27] = system: HCT-15
[28] = system: NCI-H460
[29] = system: HT-29
[30] = system: XF498
[31] = system: CCRF-CEM
[32] = system: TK-10
[33] = system: HCC 2998
[34] = system: SN12C
[35] = system: NCI-H522
[36] = system: NCI-H226
[37] = system: SF-268
[38] = system: EKVX
[39] = system: A498
[40] = system: IGROV-1
[41] = system: K562
[42] = system: UO-31
[43] = system: SNB-78
[44] = system: DMS-114
[45] = system: HCT-116
[46] = system: M19-MEL
[47] = system: SF-295
[48] = system: LOX IMVI
[49] = system: UACC-62
[50] = system: OVCAR-4
[51] = system: CAKI-1
[52] = system: OVCAR-8
[53] = system: SNB-19
[54] = system: SK-MEL-2
[55] = system: LXFL 529
[56] = system: HOP-18
[57] = system: SK-OV-3
[58] = system: SR
[59] = system: NCI/ADR-RES
[60] = system: MCF7

CS/C(=N/C(=O)c1ccccc1Cl)SCCS/C(=N\C(=O)c1ccccc1Cl)SC
GI50 [1]: > 100 µM (inactive) | GI50 [2]: 19.6 µM (inactive) | GI50 [3]: > 100 µM (inactive) | GI50 [4]: > 100 µM (inactive) | GI50 [5]: > 100 µM (inactive) | GI50 [6]: > 100 µM (inactive) | GI50 [7]: > 100 µM (inactive) | GI50 [8]: > 100 µM (inactive) | GI50 [9]: > 100 µM (inactive) | GI50 [10]: > 100 µM (inactive) | GI50 [11]: > 100 µM (inactive) | GI50 [12]: > 100 µM (inactive) | GI50 [13]: > 100 µM (inactive) | GI50 [14]: > 100 µM (inactive) | GI50 [15]: > 100 µM (inactive) | GI50 [16]: > 100 µM (inactive) | GI50 [17]: > 100 µM (inactive) | GI50 [18]: > 100 µM (inactive) | GI50 [19]: > 100 µM (inactive) | GI50 [20]: > 100 µM (inactive) | GI50 [21]: > 100 µM (inactive) | GI50 [22]: > 100 µM (inactive) | GI50 [23]: > 100 µM (inactive) | GI50 [24]: > 100 µM (inactive) | GI50 [25]: > 100 µM (inactive) | GI50 [26]: > 100 µM (inactive) | GI50 [27]: > 100 µM | GI50 [28]: > 100 µM (inactive) | GI50 [29]: > 100 µM (inactive) | GI50 [30]: > 100 µM (inactive) | GI50 [31]: > 100 µM (inactive) | GI50 [32]: > 100 µM (inactive) | GI50 [33]: > 100 µM (inactive) | GI50 [34]: > 100 µM (inactive) | GI50 [35]: > 100 µM (inactive) | GI50 [36]: > 100 µM (inactive) | GI50 [37]: > 100 µM (inactive) | GI50 [38]: > 100 µM (inactive) | GI50 [39]: > 100 µM (inactive) | GI50 [40]: > 100 µM (inactive) | GI50 [41]: > 100 µM (inactive) | GI50 [42]: > 100 µM (inactive) | GI50 [43]: > 100 µM (inactive) | GI50 [44]: > 100 µM (inactive) | GI50 [45]: > 100 µM (inactive) | GI50 [46]: > 100 µM (inactive) | GI50 [47]: > 100 µM (inactive) | GI50 [48]: > 100 µM (inactive) | GI50 [49]: > 100 µM (inactive) | GI50 [50]: > 100 µM (inactive) | GI50 [51]: > 100 µM (inactive) | GI50 [52]: > 100 µM (inactive) | GI50 [53]: > 100 µM (inactive) | GI50 [54]: > 100 µM (inactive)

O=C(C#Cc1ccccc1)NC/C=C/c1ccccc1
GI50 [1]: 14.8 µM (inactive) | GI50 [2]: 25.4 µM (inactive) | GI50 [3]: 42.6 µM (inactive) | GI50 [4]: 33.6 µM (inactive) | GI50 [5]: 24.1 µM (inactive) | GI50 [6]: 43.1 µM (inactive) | GI50 [7]: 24.2 µM (inactive) | GI50 [8]: 44.9 µM (inactive) | GI50 [9]: 76.4 µM (inactive) | GI50 [10]: 45.1 µM (inactive) | GI50 [55]: 38.2 µM (inactive) | GI50 [11]: > 100 µM (inactive) | GI50 [12]: 36.9 µM (inactive) | GI50 [13]: 39 µM (inactive) | GI50 [14]: 44.4 µM (inactive) | GI50 [15]: 83.4 µM (inactive) | GI50 [16]: 55.3 µM (inactive) | GI50 [17]: 36 µM (inactive) | GI50 [19]: 33 µM (inactive) | GI50 [20]: > 100 µM (inactive) | GI50 [21]: 49.8 µM (inactive) | GI50 [23]: 22.8 µM (inactive) | GI50 [24]: 33.3 µM (inactive) | GI50 [25]: 46.7 µM (inactive) | GI50 [26]: 17.8 µM (inactive) | GI50 [27]: 38.9 µM | GI50 [28]: 47.9 µM (inactive) | GI50 [29]: 50.2 µM (inactive) | GI50 [31]: 36.8 µM (inactive) | GI50 [32]: 47.3 µM (inactive) | GI50 [33]: 35.2 µM (inactive) | GI50 [34]: 49.9 µM (inactive) | GI50 [35]: 29.7 µM (inactive) | GI50 [36]: 31.6 µM (inactive) | GI50 [37]: 31.5 µM (inactive) | GI50 [38]: > 100 µM (inactive) | GI50 [39]: 52 µM (inactive) | GI50 [40]: 55.8 µM (inactive) | GI50 [41]: 33.6 µM (inactive) | GI50 [42]: 33.4 µM (inactive) | GI50 [43]: 29.9 µM (inactive) | GI50 [44]: 46.6 µM (inactive) | GI50 [45]: 41.7 µM (inactive) | GI50 [46]: 60.1 µM (inactive) | GI50 [47]: 38.6 µM (inactive) | GI50 [56]: > 100 µM (inactive) | GI50 [48]: 38.5 µM (inactive) | GI50 [57]: 22.2 µM (inactive) | GI50 [49]: 33.6 µM (inactive) | GI50 [50]: 48.1 µM (inactive) | GI50 [51]: 37.2 µM (inactive) | GI50 [58]: 35.6 µM (inactive) | GI50 [52]: 35.2 µM (inactive) | GI50 [53]: 26.7 µM (inactive) | GI50 [54]: 35.5 µM (inactive)

COC(=O)C1C(O)C(C)C(O)C(C)/C=C\C=C(C)C(=O)Nc2c(C)c(OC(C)=O)c3c(c2O)C(=O)C(C)=C2OCOC(=C23)C(C)=CC(C)(O)C(O)C(C)C1O (configuration not stated)
GI50 [2]: 60.1 µM (inactive) | GI50 [59]: 56.9 µM (inactive) | GI50 [5]: 18.7 µM (inactive) | GI50 [6]: 18.3 µM (inactive) | GI50 [8]: 34 µM (inactive) | GI50 [9]: 26.6 µM (inactive) | GI50 [10]: 40 µM (inactive) | GI50 [11]: 32.1 µM (inactive) | GI50 [12]: 25 µM (inactive) | GI50 [13]: 60.4 µM (inactive) | GI50 [15]: 17.4 µM (inactive) | GI50 [19]: 42.4 µM (inactive) | GI50 [20]: > 75 µM (inactive) | GI50 [21]: 45.4 µM (inactive) | GI50 [22]: 52.6 µM (inactive) | GI50 [23]: > 75 µM (inactive) | GI50 [24]: > 60.5 µM (inactive) | GI50 [60]: 20.1 µM (inactive) | GI50 [29]: 21.7 µM (inactive) | GI50 [36]: 61.7 µM (inactive) | GI50 [37]: 43.9 µM (inactive) | GI50 [39]: 63.1 µM (inactive) | GI50 [40]: > 75 µM (inactive) | GI50 [42]: 72.6 µM (inactive) | GI50 [43]: 41.4 µM (inactive) | GI50 [44]: 19.7 µM (inactive) | GI50 [45]: 26.4 µM (inactive) | GI50 [47]: 62.5 µM (inactive) | GI50 [57]: > 75 µM (inactive) | GI50 [51]: 33.7 µM (inactive) | GI50 [52]: 28.6 µM (inactive) | GI50 [53]: > 75 µM (inactive) | GI50 [54]: 18.1 µM (inactive)

— ChEMBL document CHEMBL1201862, “PubChem BioAssay data set” (2004)
